Patent US11352400B2, “PI3K gamma inhibitor peptide for treatment of respiratory system diseases” (Kither Biotech S.r.I., priority 2014, dated 2022)

How the values were obtained:
[1] = target: T1, association of PI3Kγ with PKA RII (Homo sapiens, UniProt P13861); settings: in vitro, previous study (1); cited from earlier work
T1 construct: the regulatory subunit of PKA (PKA RII) was immunoprecipitated by incubating the protein extract; expressed in transfected cells; host or cells: HEK293 (ATCC CRL-1573) transfected with pcDNA3.1-PI3Kγ; PKA RII endogenous
T1 sequence (P13861 whole entry): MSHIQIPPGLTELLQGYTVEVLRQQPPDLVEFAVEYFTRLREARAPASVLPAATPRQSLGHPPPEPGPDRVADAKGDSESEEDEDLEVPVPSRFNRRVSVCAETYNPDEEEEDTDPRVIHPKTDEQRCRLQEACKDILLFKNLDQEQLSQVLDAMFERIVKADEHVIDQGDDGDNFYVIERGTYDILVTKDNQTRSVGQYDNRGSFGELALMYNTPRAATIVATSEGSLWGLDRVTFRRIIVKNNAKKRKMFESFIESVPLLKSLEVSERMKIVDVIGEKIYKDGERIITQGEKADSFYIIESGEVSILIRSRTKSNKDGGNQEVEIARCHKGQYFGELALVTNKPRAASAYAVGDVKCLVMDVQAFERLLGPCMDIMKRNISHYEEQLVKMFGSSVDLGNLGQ

[2] = tested on: PI3Kγ-bound phosphodiesterase 3B; settings: in vitro, previous study (1); cited from earlier work
[3] = tested on: hBSMCs; test: Measurements of calcium transients (Indo-1) in hBSMCs; format: cell-based, human; settings: 50 μM, 30 minutes, 40 mM KCl depolarizing solution
Experimental: Cells were washed with a Tyrode solution containing (in mmol/L): 5 HEPES, 154 NaCl, 4 KCl, 2 CaCl2, 1 MgCl2, 5.5 D-glucose, at pH 7.35 and placed on an inverted microscope. Cells were kept in Tyrode solution and treated with a KCl depolarizing solution containing (in mmol/L): 5 HEPES, 118 NaCl, 40 KCl, 2 CaCl2, 1 MgCl2, 5.5 D-glucose, at pH 7.35. Calcium transients were analyzed as the ratio of fluorescence signals measured at 400 nm and 490 nm following excitation of Indo-1-AM-loaded cells at 350 nm. Experiments were recorded and analyzed with Igor® Software, using the functions added by Jason Rothman (Neuromatic, www.thinkrandom.com).

[4] = tested on: wild-type CFTR; test: Chloride currents in Ussing chamber, NuLi-1 cells; format: cell-based, human; settings: peptide 10-30 μM, P1 30 μM
Experimental: (§1) Human airway epithelial cell lines expressing a wild-type CFTR (NuLi-1) or with the ΔF508 mutation (CuFi-1) were purchased from ATCC (NuLi-1 product code: ATCC® CRL-4011™; CuFi-1 product code: ATCC® CRL-4013™). Cells were cultured in Dulbecco's Modified Eagle Medium (DMEM, Gibco, Carlsbad, Calif.) supplemented with 10% fetal bovine serum (FBS), 30 μg/mL of penicillin, 100 μg/mL of streptomycin and 300 μg/mL hygromycin B (Gibco, Carlsbad, Calif.).
(§2) To measure chloride currents in normal and ΔF508 primary human bronchial epithelial cells, cells were cultured on 1.12 cm^2 Snapwell inserts. Filters were mounted in Ussing chambers, and a chloride gradient was applied by incubating the cells in a basolateral high-chloride buffer containing (in mmol/L): 140 NaCl, 5 KCl, 0.36 K2HPO4, 0.44 KH2PO4, 1.3 CaCl2, 0.5 MgCl2, 4.2 NaHCO3, 10 HEPES, and 10 glucose, at pH 7.4 and an apical low-chloride buffer containing (in mmol/L): 133.3 Na-gluconate, 5 K-gluconate, 2.5 NaCl, 0.36 K2HPO4, 0.44 KH2PO4, 5.7 CaCl2, 0.5 MgCl2, 4.2 NaHCO3, 10 HEPES, and 10 mannitol, at pH 7.4. Buffers were aerated with a mixture of 95% O2 and 5% CO2 and the temperature was maintained at 37° C. during the experiment. […] After a stabilization period of 30 minutes, drugs were added at specific times, while the current was continuously recorded.

[5] = tested on: β2-AR/cAMP signaling; test: FRET imaging of cAMP (ICUE3 probe) in hBSMCs after β2-AR stimulation; format: cell-based, human; settings: hBSMCs pre-treated 50 μM, 30 minutes; ISO 100 nM + CGP-20712A 100 nM
Experimental: Human bronchial smooth muscle cells (hBSMCs) were transfected with a plasmid encoding the FRET probe for cAMP, ICUE3 (described in the U.S. Pat. No. 8,236,523 B2) (2), by electroporation with a Nucleofector device (AMAXA, Gaithersburg, Md.), according to the manufacturer's protocol. Briefly, 1×10^6 cells were re-suspended in 100 μL of nucleofection solution (VPI-1004, AMAXA, Gaithersburg, Md.), mixed with 1 μg of pcDNA3-ICUE3 (described in U.S. Pat. No. 8,236,523 B2), and subjected to electroporation in a nucleofection apparatus of Amaxa Biosystems (Program A-033). Live cell imaging experiments were performed at 24 hours after transfection.
Measurements of cAMP levels were performed on human bronchial smooth muscle cells (hBSMCs) that express the FRET probe ICUE3, as described previously (2). Briefly, cells were maintained in a K^+-Ringer solution containing (in mmol/L) 121.6 NaCl, 5.4 KCl, 1.8 MgCl2, 1.8 CaCl2, 4 NaHCO3, 0.8 NaH2PO4, 5 D-glucose, 5 sodium pyruvate, 10 HEPES, at pH 7.4. […] FRET efficiency was calculated using the “Method 3” provided by the Leica wizard application for FRET imaging and sensitized emission, according to which: EA(i)=B/A, where EA(i) is the apparent FRET efficiency; A and B are the intensities of the CFP channel and FRET, respectively. […]

[6] = tested on: ΔF508-CFTR; test: Chloride currents in Ussing chamber, CuFi-1 cells; format: cell-based, human; settings: CuFi-1 cells corrected with VX-809 (20 μM, 24 hours); P1 10 μM, VX-770 10 μM
Experimental: as §1, §2

| Sequence | PKA anchoring (PI3Kγ-PKA interaction) [1] | activity of PI3Kγ-bound phosphodiesterase 3B [2] | influx of Ca2+ induced by KCl (through VOCCs) [3] | CFTR-dependent Cl− currents [4] | increase of cAMP accumulation following stimulation of β2-ARs [5] | CFTR activity in the presence of VX-770 [6] |
| --- | --- | --- | --- | --- | --- | --- |
| KATHRSPGQIHLVQRHPPSEESQAF (homo sapiens) [SEQ ID No.: 1] | inhibits | decreases |  |  |  |  |
| RQIKIWFQNRRMKWKK (Antennapedia penetratin 1) [P1 control peptide, cell-penetrating Penetratin 1 of Antennapedia, used as control peptide, reference compound] |  |  | unchanged | did not change | unchanged | did not change |
